Holding throughout (format): functional, organism-based
For experiment [1], the system named is Rattus norvegicus. In words: Oral antiallergy activity in the passive foot anaphylaxis (PFA) model of rat, at a dose of 3.16 (mg/kg); Activity equal to positive control group.
Experiment [2] has as its system Rattus norvegicus. The experiment can be described thus: Oral antiallergy activity in the passive foot anaphylaxis (PFA) model of rat, at a dose of 3.16 (mg/kg); Activity between positive and negative control groups.
The test system of experiment [3] is Rattus norvegicus. The experiment can be described thus: Oral antiallergy activity in the passive foot anaphylaxis (PFA) model of rat, at a dose of 10 (mg/kg); Activity equal to positive control group.
Experiment [4] deals with Rattus norvegicus. The experiment can be described thus: Oral antiallergy activity in the passive foot anaphylaxis (PFA) model of rat, at a dose of 1.0 (mg/kg); not significantly different from negative control group.
Experiment [5] relates to Rattus norvegicus. In words: Oral antiallergy activity in the passive foot anaphylaxis (PFA) model of rat, at a dose of 10 (mg/kg); Activity greater than positive control group.
Experiment [6] concerns Rattus norvegicus. The experiment can be described thus: Oral antiallergy activity in the passive foot anaphylaxis (PFA) model of rat, at a dose of 3.16 (mg/kg); not significantly different from negative control group.
Experiment [7] concerns Rattus norvegicus. In words: Oral antiallergy activity in the passive foot anaphylaxis (PFA) model of rat, at a dose of 10 (mg/kg); Activity between positive and negative control groups.
In experiment [8] the test system is Rattus norvegicus. The experiment can be described thus: Oral antiallergy activity in the passive foot anaphylaxis (PFA) model of rat, at a dose of 1.0 (mg/kg); Activity between positive and negative control groups.
In experiment [9] the test system is Rattus norvegicus. In words: Oral antiallergy activity in the passive foot anaphylaxis (PFA) model of rat, at a dose of 0.5 (mg/kg); not significantly different from negative control group.

On to `COc1cc(C(C)=O)ccc1OCCCN1CCC(C(O)(c2ccccc2)c2ccc(F)cc2)CC1` (centres undefined), for which the PFA result in experiment [1] is reported as “Activity equal to positive control group”.

As to `CCc1ccc(OCCCN2CCC(C(O)(c3ccc(F)cc3)c3ccc(F)cc3)CC2)cc1`, the PFA entry is “Activity between positive and negative control groups” in [2]; “Activity between positive and negative control groups” in experiment [3]; “Activity between positive and negative control groups” in experiment [4].

As to `COc1cc(C(C)=O)ccc1OCCCN1CCN(C(c2ccccc2)c2ccccc2)CC1`, the PFA result in experiment [3] is reported as “Activity equal to positive control group”.

On to `COc1cc(C(C)=O)ccc1OCCCN1CCC(=C(c2ccccc2)c2ccccc2)CC1`, for which the PFA entry in experiment [1] is “Activity equal to positive control group”.

`CC(=O)Nc1ccc(OCCCN2CCC(C(O)(c3ccc(F)cc3)c3ccc(F)cc3)CC2)cc1`: the PFA result in [5], in experiment [1] and in experiment [4] was “Activity equal to positive control group” in each case.

For `CC(=O)Cc1ccc(OCCCN2CCC(C(O)(c3ccc(F)cc3)c3ccc(F)cc3)CC2)cc1`, the PFA entry in experiment [6] and in experiment [5] was “Activity greater than positive control group” in each case.

On to `COc1cc(C(C)=O)ccc1OCCCN1CCN(c2ccccc2)CC1`, for which the PFA entry in experiment [3] was “Activity equal to positive control group”.

For `COc1cc(C(C)=O)ccc1OCCCN1CCC(C(=O)c2ccccc2)CC1`, in experiment [3], the PFA result is recorded as “Activity equal to positive control group”.

As to `COc1ccc(OCCCN2CCC(C(O)(c3ccc(F)cc3)c3ccc(F)cc3)CC2)cc1`, the PFA entry in experiment [6] and in experiment [3] was “Activity equal to positive control group” throughout.

On to `CCOC(=O)Nc1ccc(OCCCN2CCC(C(O)(c3ccc(F)cc3)c3ccc(F)cc3)CC2)cc1`, for which the PFA entry in experiment [5], in experiment [1] and in experiment [4] was “Activity equal to positive control group” throughout.

For the compound `COc1cc(C(C)=O)ccc1OCCN1CCC(C(O)(c2ccc(F)cc2)c2ccc(F)cc2)CC1`, the PFA entry in experiment [3] is on record as “Activity equal to positive control group”.

For the compound `OC(c1ccc(F)cc1)(c1ccc(F)cc1)C1CCN(CCCOc2ccccc2)CC1`, in [1], the PFA entry is “Activity equal to positive control group”.

As for `CCOC(=O)c1ccccc1OCCCN1CCC(C(O)(c2ccc(F)cc2)c2ccc(F)cc2)CC1`, the PFA entry in [2] was “Activity between positive and negative control groups”; in experiment [4], “Activity between positive and negative control groups”; in [7], “Activity between positive and negative control groups”.

For `O=C(O)Cc1ccc(OCCCN2CCC(C(O)(c3ccc(F)cc3)c3ccc(F)cc3)CC2)cc1`, the PFA entry in experiment [2] was “Activity between positive and negative control groups”; in [3] it was “Activity between positive and negative control groups”; in experiment [4], “Activity between positive and negative control groups”.

In the case of `CS(=O)(=O)c1ccc(OCCCN2CCC(C(O)(c3ccc(F)cc3)c3ccc(F)cc3)CC2)cc1`, the PFA result in [6] and in experiment [3] was “Activity equal to positive control group” each time.

In the case of `OC(c1ccccc1)(c1ccccc1)C1CCN(CCCOc2ccccc2)CC1`, in experiment [3], the PFA entry is listed as “Activity equal to positive control group”.

Turning to `CC(C)(C)C(=O)c1ccc(OCCCN2CCC(C(O)(c3ccc(F)cc3)c3ccc(F)cc3)CC2)cc1`, the PFA result in experiment [6] and in experiment [3] was “Activity equal to positive control group” throughout.

For the compound `COc1cc(C(C)=O)ccc1OCCCN1CCC(C(c2ccccc2)c2ccccc2)CC1`, the PFA result in experiment [3] is listed as “Activity equal to positive control group”.

`Oc1ccccc1OCCCN1CCC(C(O)(c2ccc(F)cc2)c2ccc(F)cc2)CC1`: the PFA result in [6] and in [3] was “Activity equal to positive control group” each time.

As to `O=C(O)CCc1ccc(OCCCN2CCC(C(O)(c3ccc(F)cc3)c3ccc(F)cc3)CC2)cc1`, the PFA result in [8] was “Activity between positive and negative control groups”; in [5], “Activity between positive and negative control groups”; in experiment [1] it was “Activity between positive and negative control groups”; in experiment [9], “Activity between positive and negative control groups”.

As to `CC(C)C(=O)c1ccc(OCCCN2CCC(C(O)(c3ccc(F)cc3)c3ccc(F)cc3)CC2)cc1`, the PFA result in experiment [6] and in experiment [5] was “Activity greater than positive control group” each time.

Consider `COc1cc(C(C)=O)ccc1OCCCCN1CCC(C(O)(c2ccc(F)cc2)c2ccc(F)cc2)CC1`, for which, in experiment [1], the PFA entry is “Activity equal to positive control group”.

Turning to `CN(C)C(=O)c1ccc(OCCCN2CCC(C(O)(c3ccc(F)cc3)c3ccc(F)cc3)CC2)cc1`, the PFA entry in [2] was “Activity between positive and negative control groups”; in experiment [5], “Activity between positive and negative control groups”; in experiment [4], “Activity between positive and negative control groups”.

For `CNC(=O)Nc1ccc(OCCCN2CCC(C(O)(c3ccc(F)cc3)c3ccc(F)cc3)CC2)cc1`, the PFA entry in experiment [6] and in experiment [3] was “Activity equal to positive control group” throughout.

As for `CCNCCc1ccc(CN(CC)c2cc(OC)ccc2[C@@H]2CCc3cc(O)ccc3C2)cc1`, the PFA result was “Activity between positive and negative control groups” in experiment [2]; “Activity between positive and negative control groups” in [4].

Take `CC(C)Oc1ccccc1OCCCN1CCC(C(O)(c2ccc(F)cc2)c2ccc(F)cc2)CC1`: the PFA result was “Activity between positive and negative control groups” in [8]; “Activity between positive and negative control groups” in [2].

`CSc1ccc(OCCCN2CCC(C(O)(c3ccc(F)cc3)c3ccc(F)cc3)CC2)cc1`: the PFA entry in experiment [6] and in experiment [3] was “Activity equal to positive control group” throughout.

In the case of `CCC(=O)c1ccc(OCCCN2CCC(C(O)(c3ccc(F)cc3)c3ccc(F)cc3)CC2)cc1`, the PFA entry in [5], in experiment [1] and in [4] was “Activity equal to positive control group” each time.

For the compound `CC(=O)c1ccc(OCCCN2CCC(C(O)(c3ccc(F)cc3)c3ccc(F)cc3)CC2)cc1`, the PFA result in experiment [5], in experiment [1] and in experiment [4] was “Activity equal to positive control group” in each case.

Regarding `COC(=O)CCc1ccc(OCCCN2CCC(C(O)(c3ccc(F)cc3)c3ccc(F)cc3)CC2)cc1`, the PFA entry is “Activity between positive and negative control groups” in [8]; “Activity between positive and negative control groups” in experiment [2]; “Activity between positive and negative control groups” in experiment [5]; “Activity between positive and negative control groups” in [9].

Turning to `COc1ccccc1OCCCN1CCC(C(O)(c2ccc(F)cc2)c2ccc(F)cc2)CC1`, the PFA result is “Activity between positive and negative control groups” in [8]; “Activity between positive and negative control groups” in experiment [2].

Consider `NC(=O)c1ccc(OCCCN2CCC(C(O)(c3ccc(F)cc3)c3ccc(F)cc3)CC2)cc1`, for which the PFA result in experiment [8] is “Activity between positive and negative control groups”; in experiment [2], “Activity between positive and negative control groups”; in experiment [5], “Activity between positive and negative control groups”; in experiment [9] it was “Activity between positive and negative control groups”.

Regarding `Cc1cccc(OCCCN2CCC(C(O)(c3ccc(F)cc3)c3ccc(F)cc3)CC2)c1`, the PFA entry is “Activity between positive and negative control groups” in experiment [2]; “Activity between positive and negative control groups” in [4]; “Activity between positive and negative control groups” in experiment [7].

As for `Nc1ccc(OCCCN2CCC(C(O)(c3ccc(F)cc3)c3ccc(F)cc3)CC2)cc1`, the PFA entry in experiment [2] is “Activity between positive and negative control groups”; in [5] it was “Activity between positive and negative control groups”; in experiment [4], “Activity between positive and negative control groups”.
